Consider seven molecules from PMC6272242, “Topical Anti-inflammatory Activity of New Hybrid Molecules of Terpenes and Synthetic Drugs” (Molecules, 2015).

The subject of series [1] is lung fibroblasts (MRC-5). Kind of series: Cytotoxicity, MTT reduction assay, MRC-5. The class given is cell-based. Particulars: Homo sapiens, MRC5, confluent cultures, 24 h, read-out: IC50 ± SD, MRC-5. On the procedure: (§1) The human cell lines, MRC-5 normal lung fibroblasts (CCL-171), AGS gastric epithelial adenocarcinoma cells (CRL-1739) and HepG2 hepatocellular carcinoma cells (HB-8065) were obtained from the American Type Culture Collection (ATCC, Manasas, VA, USA). The cells were grown as monolayers in the following media: MRC-5 and HepG2 in MEM and AGS in Ham F-12. The MEM medium contained 2 mM L-glutamine, 1 mM sodium pyruvate and 1.5 g/L sodium bicarbonate. Ham F-12 was supplemented with 2 mM L-glutamine and 1.5 g/L sodium bicarbonate. Both media were supplemented with 10% heat inactivated fetal bovine serum, 100 IU/mL penicillin and 100 µg/mL streptomycin in a humidified incubator with 5% CO2 in air at 37 °C. For the experiments, cells were plated at a density of 25,000 cells/mL in 96-well plates. […] Compounds were first dissolved in DMSO and then in medium. The final concentration of DMSO in the test medium and controls was 1%. […] The cell viability for each compound was calculated comparing the cell viability of the untreated controls (100%) with the cell viability of the different concentrations of each compound. Each concentration was tested in quadruplicate together with the control and repeated three times in separate experiments. Cell viability was determined at the end of the incubation by means of the MTT reduction assay. Results were converted to percentage of controls, and the IC50 values were graphically obtained from the dose-response curves. Culture media, antibiotics and fetal bovine serum were obtained from Invitrogen Corp. (Waltham, MA, USA). Other reagents were purchased from Sigma Chemical Co. For the animal experiments all values are presented as median ± SEM. Drug-induced changes were statistically estimated using the Kruskall-Wallis test for comparison between groups and testing, and the Mann-Whitney test was used in the independent data for individual comparisons. The effects were considered significant if p ≤ 0.05. For cytotoxicity experiments, each concentration was tested in quadruplicate together with the control and repeated three times in different experiments. Results are expressed as IC50 values (µM) ± S.D.

For series [2], the system named is mice ear edema induced by arachidonic acid. Kind of series: Topical anti-inflammatory effect, arachidonic acid (AA) induced ear edema in mice. It is filed as in vivo. As to conditions: 3.2 µmol/mouse; for inhibition in vivo at 3.2 µmol/animal: 1 h after AA, n = 8, read-out: % TAAA ± SEM (percent reduction of the ear edema, arachidonic acid). On the procedure:
(§2) The inflammatory agent arachidonic acid (AA) and phorbol 12-myristate 13-acetate (TPA) were used to assess the anti-inflammatory effect/action mechanism of the starting compounds, new synthetic products and reference drugs. […] Adult male CF-1 mice (20–25 g), obtained from a stock maintained at the Chilean Public Health Institute, were used to assess the anti-inflammatory effect. All animals were housed in a climate- and light-controlled room with a 12 h light-dark cycle, fasted overnight before the day of the assays, with free access to water. The anti-inflammatory activity of each compound was evaluated in groups of 8 treated and 16 control mice. Due to ethical considerations, the number of animals was kept to a minimum and single dose experiments were carried out.
(§3) The pro-inflammatory agents TPA and AA, the reference drugs indomethacin and nimesulide were from Sigma. […] After 5 min, inflammation was induced by the application of 20 µL TPA or AA (5 mg/mL) in acetone. […] Control subjects only received TPA or AA. Both, the sample and the TPA or AA, were applied to the inner (10 µL) and outer (10 µL) surfaces of the right ear. The left ear only received acetone. Mice were sacrificed by cervical dislocation (after 6 h of TPA and 1 h AA), and a 6 mm diameter section of the right and left ears were cut and weighed. The weight differences between both ear sections correspond to the edema value. The percent topical anti-inflammatory activity (TA) was evaluated according to the following equation: (1) %TA=[ Wc−Ws/Wc]× 100 where Wc and Ws are the different median values of the weights of the right and the left ear sections of the control and the treated animals, respectively.
(§4) For the animal experiments all values are presented as median ± SEM. Drug-induced changes were statistically estimated using the Kruskall-Wallis test for comparison between groups and testing, and the Mann-Whitney test was used in the independent data for individual comparisons. The effects were considered significant if p ≤ 0.05. For cytotoxicity experiments, each concentration was tested in quadruplicate together with the control and repeated three times in different experiments. Results are expressed as IC50 values (µM) ± S.D.

Series [3] concerns human lung fibroblasts (MRC-5), gastric epithelial cells (AGS) and hepatocytes HepG2. Kind of series: Cytotoxicity, MTT reduction assay, summary over the three cell lines. It is filed as cell-based. As to conditions: for IC50: Homo sapiens, MRC-5, AGS and HepG2, 24 h, MTT, read-out: IC50 values, range over the three cell lines. On the procedure:
as §1

The subject of series [4] is mice ear edema induced by 12-O-tetradecanoylphorbol 13-acetate. Briefly: Topical anti-inflammatory effect, 12-O-tetradecanoylphorbol 13-acetate (TPA) induced ear edema in mice. It is filed as in vivo. Particulars: 1.4 µmol/mouse, 6 h after TPA, n = 8, read-out: % TATPA ± SEM (percent reduction of the ear edema, TPA). On the procedure: as §2, §3, §4
In series [5] the test system is hepatocytes HepG2. Briefly: Cytotoxicity, MTT reduction assay, HepG2. The class given is cell-based. As to conditions: Homo sapiens, confluent cultures, 24 h, read-out: IC50 ± SD, HepG2. As for the experimental part:
as §1, with “Results were converted to percentage of controls, and the IC50 values were graphically obtained from the dose-response curves.” left out

Series [6] concerns gastric epithelial cells (AGS). Briefly: Cytotoxicity, MTT reduction assay, AGS. The class given is cell-based. As to conditions: Homo sapiens, Epithelial cell, confluent cultures, 24 h, read-out: IC50 ± SD, AGS. On the procedure:
as §1

In series [7] the test system is acetic acid-induced writhing. Further details: method as in PMID 12767601. As to conditions: oral administration, ibuprofen at 40 mg/kg; cited from earlier work.
The subject of series [8] is xylene-induced ear edema. Further details: method as in PMID 16806590. Particulars: mice; cited from earlier work.

`C=C1CCC2[C@](C)(CCC[C@]2(C)C(=O)O)[C@H]1CC[C@@H](C)CCOC(=O)[C@@H](C)c1ccc(CC(C)C)cc1` (mixture of isomers) [Compound 8, Imbricatol-15-yl ibuprofenate]: the IC50 is 34 ± 2 µM in series [1], 23 to 79 µM in series [3], 79 ± 8 µM in series [5] and 23 ± 1 µM in series [6]. In addition, in series [2], the inhibition in vivo at 3.2 µmol/animal turned out to be 10 ± 6%. Also, in series [4], the inhibition in vivo at 1.4 µmol/animal stood at 40.3 ± 2.4%.
On to `COc1ccc2cc([C@H](C)C(=O)Oc3cc4c(cc3C(C)C)CCC3C(C)(C)CCC[C@]43C)ccc2c1` (some centres unmarked) [Compound 7, Ferruginyl naproxenate], for which the IC50 is 945 ± 56 µM in series [1], no less than 874 µM in series [3], greater than 1000 µM in series [5] and 874 ± 49 µM in series [6]. Further, the inhibition in vivo at 3.2 µmol/animal in series [2] came to 26.6 ± 4.1%. Besides, in series [4], the inhibition in vivo at 1.4 µmol/animal was determined as 26.8 ± 3.8%.
In the case of `C=C1CC[C@@H]2[C@](C)(CCC[C@]2(C)C(=O)O)[C@H]1CC[C@H](C)CCO` [Compound 2, imbricatolic acid, reference compound], the IC50 in series [1] was 134 ± 7 µM; in series [3], 111 to 148 µM; in series [5], 111 ± 7 µM; in series [6] it was 148 ± 9 µM. Besides, the inhibition in vivo at 3.2 µmol/animal in series [2] is 5 ± 3%. For the same molecule, the “Cytotoxic effect, in words” value in series [3] (MRC-5, AGS and HepG2) is on record as “moderate”. Also, the inhibition in vivo at 1.4 µmol/animal in series [4] worked out at 10.1 ± 4%.
On to `CC(C)Cc1ccc(C(C)C(=O)O)cc1` (centres unmarked) [Compound 4, ibuprofen, reference compound], for which the Reduction of stretches in series [7] is recorded as 77.6%. Besides, the IC50 in series [1], in series [3], in series [5] and in series [6] was greater than 1000 µM in each case. The “Activity in the AA model, in words” value in series [2] is “inactive”. Moreover, the inhibition in vivo at 3.2 µmol/animal in series [2] is 7.2 ± 5.5%. In addition, the inhibition in vivo at 1.4 µmol/animal in series [4] was determined as 56.2 ± 3.4%. In series [8], the “Reduction of xylene-induced ear edema” value is 45.9%.
For the molecule ibuprofen propyl glucopyranoside ester, the “Reduction of xylene-induced ear edema” value in series [8] was 52.7%.
Consider `C=C1CCC2[C@](C)(CCC[C@]2(C)C(=O)OC)[C@H]1CC[C@@H](C)CCOC(=O)[C@@H](C)c1ccc(CC(C)C)cc1` (mixture of isomers) [Compound 9, Imbricatol-15-yl ibuprofenate methyl ester], for which the concentration for half-maximal inhibition (IC50) in series [1] was 706 ± 35 µM; in series [3], no less than 601 µM; in series [5], 746 ± 38 µM; in series [6], 623 ± 39 µM. For the same molecule, in series [2], the inhibition in vivo at 3.2 µmol/animal came out at 14.9 ± 7.4%. Also, the inhibition in vivo at 1.4 µmol/animal in series [4] was determined as 41.2 ± 6.2%.
As to `CC(C)Cc1ccc([C@H](C)C(=O)Oc2cc3c(cc2C(C)C)CCC2C(C)(C)CCC[C@]32C)cc1` (mixture of isomers) [Compound 6, Ferruginyl ibuprofenate], the IC50 in series [1] is greater than 1000 µM; in series [3] it was no less than 874 µM; in series [5], 874 ± 34 µM; in series [6], greater than 1000 µM. For the same molecule, the inhibition in vivo at 3.2 µmol/animal in series [2] worked out at 14.9 ± 7.1%. Further, the inhibition in vivo at 1.4 µmol/animal in series [4] turned out to be 47.9 ± 4.6%.
